Common to all, as to format: physicochemical
Data set [1] can be described thus: Density and magnetic susceptibility of paramagnetic ionic liquids from MagLev levitation height of density standard beads. The settings on record: for ρ (density) / χ (magnetic susceptibility): calculated from levitation height vs density of standard beads (Mirica et al. JACS 2009 method); for Accessible Density Range: range of densities that can be levitated in MagLev. The procedure: The density of a diamagnetic object was determined, from its levitation height, by suspending the object in a container filled with paramagnetic ionic liquid and placed the container between two NdFeB magnets oriented with like poles facing each other (see FIG. 5). Before using the paramagnetic ionic liquids as liquids for density based measurement using Maglev, the density and magnetic susceptibility of each paramagnetic ionic liquid was first determined (examples shown in FIG. 6). These properties can be calculated from a plot of the levitation height of objects with known density versus their density using previously disclosed methods. See, e.g., Mirica et al. JACS, 2009, 10049. See also, FIGS. 7-9, Table 1.

A short description of data set [2]: Thermal stability by thermal gravimetric analysis (TGA). As to the method:
The change in weight as a function of temperature was monitored by heating the sample from room temperature to 700° C. at a ramp rate of 10° C./min.
(§1) Except for [BMIM][FeCl4], [GlyC2][FeCl2][BMIM]2[MnCl4], all paramagnetic ionic liquids were synthesized by mixing appropriate equivalents of the halide starting materials in methanol and allowed to stir overnight. The solvent was removed in vacuo affording paramagnetic ionic liquids in nearly quantitative yield. The synthesis of [BMIM][FeCl4], [GlyC2][FeCl4] was carried out by following reported literature procedure (Satoshi Hayashi and Hiro-o Hamaguchi Chemistry Letters 2004, 33 (12) 1590-1591; Masanari Okuno and Hiro-o Hamaguchi Applied Physics Letters 2006, 89, 132506). Specifically, BMIM Cl and FeCl3 were mixed together in a 1:1 molar ratio and stirred under nitrogen atmosphere. After stirring for 10 minutes at room temperature, BMIM FeCl4 was obtained as a brown colored ionic liquid. This procedure was also used for BMIM MnCl4 except that the mixture was gently heated at 60° C. for 5 minutes. The synthesized paramagnetic ionic liquids were characterized using elemental analysis (Robertson Microlit Labs, NJ). The glass transition temperature (Tg), melting point (Tm), and decomposition temperatures (Tdec) of the synthesized paramagnetic ionic liquids were obtained respectively using dynamic scanning calorimetry (DSC), and thermal gravimetric analysis (TGA).
The thermal stability of the paramagnetic ionic liquids was measured using thermal gravimetric analysis (TGA). Most paramagnetic ionic liquids were thermally stable to at least 300° C. (see FIG. 4). The melting points (Tm), glass transition (Tg) and decomposition temperatures (Tdec) of the synthesized paramagnetic ionic liquids is provided below.

Data set [3] is described as follows: Glass transition temperature by differential scanning calorimetry (DSC). The settings on record: cooling from 20° C. to −75° C. at 10° C./minute, then heating. As to the method:
as §1, with “The glass transition temperature (Tg), melting point (Tm), and decomposition temperatures (Tdec) of the synthesized paramagnetic ionic liquids were obtained respectively using dynamic scanning calorimetry (DSC), and thermal gravimetric analysis (TGA).” left out
The glass transition temperatures and melting points of the synthesized paramagnetic ionic liquids were determined using differential scanning calorimetry (DSC) (see FIG. 3). […]
Background: Differential scanning calorimetry records heat flow against a reference as temperature is scanned.

The values below come from patent US20150135829A1, “Levitation of Materials in Paramagnetic Ionic Liquids” (Presidents and Fellows of Harvard College, priority 2012, published 2015).

Consider `CCCCCCCC[N+](C)(CCCCCCCC)CCCCCCCC.CCCCCCCC[N+](C)(CCCCCCCC)CCCCCCCC.CCCCCCCC[N+](C)(CCCCCCCC)CCCCCCCC.[Cl][Ho-3]([Cl])([Cl])([Cl])([Cl])[Cl]` [[Aliq]3 [HoCl6]], for which, in data set [1], the “ρ (density)” value is 0.95 g/mL, the “χ (magnetic susceptibility)” value is listed as 1.94 ×10^−4 and the “Accessible Density Range” value lay in the range of 0.85 to 1.05 g/mL.

`CCCC[n+]1ccn(C)c1C.CCCC[n+]1ccn(C)c1C.CCCC[n+]1ccn(C)c1C.[Cl][Dy-3]([Cl])([Cl])([Cl])([Cl])[Cl]` [[BDMIM]3 [DyCl6]]: in data set [1], the “ρ (density)” value was 1.23 g/mL, the “χ (magnetic susceptibility)” value was 3.49 ×10^−4 and the “Accessible Density Range” value lay in the range of 1.05 to 1.41 g/mL.

Turning to `CCCC[n+]1ccn(C)c1.CCCC[n+]1ccn(C)c1.CCCC[n+]1ccn(C)c1.[Cl][Ho-3]([Cl])([Cl])([Cl])([Cl])[Cl]` [[BMIM]3 [HoCl6]], in data set [1], the “ρ (density)” value was 1.29 g/mL, the “χ (magnetic susceptibility)” value was 5.40 ×10^−4 and the “Accessible Density Range” value was 1.30 to 1.35 g/mL.

Consider `CCCCCCCC[N+](C)(CCCCCCCC)CCCCCCCC.CCCCCCCC[N+](C)(CCCCCCCC)CCCCCCCC.CCCCCCCC[N+](C)(CCCCCCCC)CCCCCCCC.[Cl][Gd-3]([Cl])([Cl])([Cl])([Cl])[Cl]` [[Aliq]3 [GdCl6]], for which, in data set [1], the “ρ (density)” value was 0.97 g/mL, the “χ (magnetic susceptibility)” value is listed as 0.55 ×10^−4 and the “Accessible Density Range” value lay in the range of 0.95 to 0.99 g/mL.

Turning to `CCCCCCCC[N+](C)(CCCCCCCC)CCCCCCCC.CCCCCCCC[N+](C)(CCCCCCCC)CCCCCCCC.CCCCCCCC[N+](C)(CCCCCCCC)CCCCCCCC.[Br][Ho-3]([Br])([Br])([Br])([Br])[Br]` [[Aliq]3 [HoBr6]], in data set [1], the “ρ (density)” value is 1.08 g/mL, the “χ (magnetic susceptibility)” value is 1.37 ×10^−4 and the “Accessible Density Range” value lay in the range of 1.01 to 1.15 g/mL. Besides, the “Tdec (decomposition temperature)” value in data set [2] stood at 250 °C.

Take `COC(=O)[C@H](C)[NH3+].COC(=O)[C@H](C)[NH3+].COC(=O)[C@H](C)[NH3+].[Cl][Dy-3]([Cl])([Cl])([Cl])([Cl])[Cl]` [[AlaC1]3 [DyCl6]]: in data set [1], the “ρ (density)” value is 1.41 g/mL, the “χ (magnetic susceptibility)” value is reported as 9.58 ×10^−4 and the “Accessible Density Range” value is 0.91 to 1.91 g/mL.

Turning to `COC(=O)[C@H](C)[NH3+].COC(=O)[C@H](C)[NH3+].COC(=O)[C@H](C)[NH3+].[Cl][Ho-3]([Cl])([Cl])([Cl])([Cl])[Cl]` [[AlaC1]3 [HoCl6]], in data set [1], the “ρ (density)” value is 1.42 g/mL, the “χ (magnetic susceptibility)” value is 9.70 ×10^−4 and the “Accessible Density Range” value lay in the range of 0.92 to 1.93 g/mL.

Take `COC(=O)[C@H](C)[NH3+].COC(=O)[C@H](C)[NH3+].[Cl][Mn-2]([Cl])([Cl])[Cl]` [[AlaC1]2 [MnCl4]]: in data set [1], the “ρ (density)” value was 1.24 g/mL, the “χ (magnetic susceptibility)” value is recorded as 11.80 ×10^−4 and the “Accessible Density Range” value lay in the range of 0.63 to 1.86 g/mL.

Consider `COC(=O)[C@H](C)[NH3+].COC(=O)[C@H](C)[NH3+].COC(=O)[C@H](C)[NH3+].[Cl][Gd-3]([Cl])([Cl])([Cl])([Cl])[Cl]` [[AlaC1]3 [GdCl6]], for which, in data set [1], the “ρ (density)” value was 1.31 g/mL, the “χ (magnetic susceptibility)” value was 8.24 ×10^−4 and the “Accessible Density Range” value lay in the range of 0.89 to 1.74 g/mL.

As for `CCCCn1cc[n+](C)c1.CCCCn1cc[n+](C)c1.CCCCn1cc[n+](C)c1.[Cl][Dy-3]([Cl])([Cl])([Cl])([Cl])[Cl]` [[BMIM]3 [DyCl6]], in data set [1], the “magnetic susceptibility (χ)” value is 12.4 ·10^−4, the “ρ (density)” value is 1.37 g/mL, the “χ (magnetic susceptibility)” value is given as 12.37 ×10^−4 and the “Accessible Density Range” value lay within 0.72 to 2.01 g/mL. In addition, in data set [2], the “Tdec (decomposition temperature)” value worked out at 350 °C.

For the compound `CCCC[n+]1ccn(C)c1.CCCC[n+]1ccn(C)c1.[Cl][Mn-2]([Cl])([Cl])[Cl]` [[BMIM]2 [MnCl4]], in data set [1], the “ρ (density)” value is 1.24 g/mL, the “χ (magnetic susceptibility)” value is 2.75 ×10^−4 and the “Accessible Density Range” value is 1.09 to 1.37 g/mL. Also, the “Tdec (decomposition temperature)” value in data set [2] is 300 °C. Also, the “Tg (glass transition temperature)” value in data set [3] was −40 °C.

With `CCCCCCCCCCCCCC[P+](CCCCCC)(CCCCCC)CCCCCC.CCCCCCCCCCCCCC[P+](CCCCCC)(CCCCCC)CCCCCC.[Cl][Mn-2]([Cl])([Cl])[Cl]` [[PR4]2[MnCl4]], the “Tg (glass transition temperature)” value in data set [3] was −69 °C.

Take `CCCCCCCC[N+](C)(CCCCCCCC)CCCCCCCC.CCCCCCCC[N+](C)(CCCCCCCC)CCCCCCCC.[Cl][Mn-2]([Cl])([Cl])[Cl]` [[Aliq]2 [MnCl4]]: in data set [1], the “ρ (density)” value is 0.96 g/mL, the “χ (magnetic susceptibility)” value is on record as 1.85 ×10^−4 and the “Accessible Density Range” value lay in the range of 0.90 to 100 g/mL.

As to `CCCCn1cc[n+](C)c1.[Cl][Fe-]([Cl])([Cl])[Cl]` [[BMIM] [FeCl4]], in data set [1], the “ρ (density)” value is 1.39 g/mL, the “χ (magnetic susceptibility)” value was 8.28 ×10^−4 and the “Accessible Density Range” value is 0.96 to 1.83 g/mL.

With `COC(=O)[C@H](C)[NH3+].[Cl][Fe-]([Cl])([Cl])[Cl]` [[AlaC1] [FeCl4]], in data set [1], the “ρ (density)” value is 1.52 g/mL, the “χ (magnetic susceptibility)” value is recorded as 6.62 ×10^−4 and the “Accessible Density Range” value lay within 1.15 to 1.93 g/mL.
